The source of these data is patent US20210122739A1, “NOVEL SULFONAMIDE CARBOXAMIDE COMPOUNDS” (Inflazome Limited, priority 2017, published 2021).

In data set [1] the target is T1, NLRP3 (Homo sapiens, UniProt Q96P20). The data set is described as follows: THP-1 cells pyroptosis assay. The conditions noted are these: 1.0 μg/ml LPS, nigericin 5 μM, resazurin readout. More on the design: Seed THP-1 cells (25,000 cells/well) containing 1.0 μg/ml LPS; host or cells: THP-1 cells, LPS-primed, nigericin-stimulated. Type of data set: cell-based. In a few lines: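 THP-1 cells (25,000/well, serum-free RPMI) primed with 1 μg/ml LPS were given compound (8-point half-log series, top 10 μM; 0.1% DMSO) for 3 h at 37 °C, then 5 μM nigericin for 1 h. Viability read by 100 μM resazurin fluorescence (Ex 560/Em 590) after 1–2 h; IC50 from four-parameter nonlinear regression.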
T1 sequence (Q96P20 whole entry): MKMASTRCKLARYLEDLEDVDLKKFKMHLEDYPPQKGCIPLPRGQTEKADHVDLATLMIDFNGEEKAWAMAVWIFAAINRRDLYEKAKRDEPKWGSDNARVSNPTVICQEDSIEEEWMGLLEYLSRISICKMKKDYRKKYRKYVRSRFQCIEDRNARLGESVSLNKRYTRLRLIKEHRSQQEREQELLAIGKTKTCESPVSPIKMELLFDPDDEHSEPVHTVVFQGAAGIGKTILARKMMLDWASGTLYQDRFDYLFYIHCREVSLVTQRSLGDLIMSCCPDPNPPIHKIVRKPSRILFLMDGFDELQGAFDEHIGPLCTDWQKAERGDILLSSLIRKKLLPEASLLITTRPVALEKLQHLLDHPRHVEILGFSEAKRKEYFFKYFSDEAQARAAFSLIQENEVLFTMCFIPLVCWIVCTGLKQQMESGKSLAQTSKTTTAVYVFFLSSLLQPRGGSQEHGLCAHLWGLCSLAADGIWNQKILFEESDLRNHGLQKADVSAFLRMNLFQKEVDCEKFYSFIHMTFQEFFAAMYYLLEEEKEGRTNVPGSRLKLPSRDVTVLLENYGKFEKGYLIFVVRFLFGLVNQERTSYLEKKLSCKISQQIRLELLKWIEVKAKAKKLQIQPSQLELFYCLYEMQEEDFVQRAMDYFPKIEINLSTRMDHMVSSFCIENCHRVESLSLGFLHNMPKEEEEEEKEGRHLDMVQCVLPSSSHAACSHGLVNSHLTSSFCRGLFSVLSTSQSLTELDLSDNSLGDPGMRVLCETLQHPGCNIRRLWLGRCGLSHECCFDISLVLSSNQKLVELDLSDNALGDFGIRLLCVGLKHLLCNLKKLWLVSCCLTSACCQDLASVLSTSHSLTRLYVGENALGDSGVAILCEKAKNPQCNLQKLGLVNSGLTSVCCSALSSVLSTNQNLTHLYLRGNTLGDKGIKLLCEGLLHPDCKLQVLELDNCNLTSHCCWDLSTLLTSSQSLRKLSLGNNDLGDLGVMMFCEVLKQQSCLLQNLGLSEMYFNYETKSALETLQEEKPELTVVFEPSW
(In general: Alamar Blue is a resazurin reagent that responds to reducing activity.)

Data set [2] in a line: PK protocol: pharmacokinetic parameters in male Sprague Dawley rats. The class given is in vivo. The conditions noted are these: plasma, rat; for Vd: read-out: Vdss. The procedure: Pharmacokinetic parameters were determined in male Sprague Dawley rats (Charles River, UK, 250-350 g; or Vital River Laboratory Animal Technology Co Ltd, Beijing, China, 7-9 weeks old). Animals were individually housed during the study and maintained under a 12 h light/dark cycle. Animals had free access to food and water except that some orally dosed animals were food deprived overnight prior to the study.
For intravenous administration, compounds were formulated as a solution in water or DMSO:PBS [10:90] in 2 mL/kg dosing volume and administered via tail vein. For oral administration, compounds were formulated as a solution in water or DMSO:water [10:90] in 5 mL/kg dosing volume and administered orally.
Serial blood samples (about 120-300 μL) were taken from each animal at each of 8 time-points post dose (0.083, 0.25, 0.5, 1, 2, 4, 8 and 24 h) or at each of 12 time-points post dose (0.03, 0.1, 0.17, 0.25, 0.5, 1, 2, 4, 6, 8, 12 and 24 h) or pre-dose and at each of 9 time-points post dose (0.25, 0.5, 1, 2, 4, 6, 8, 12 and 24 h). Samples were held on ice for no longer than 30 minutes before centrifugation (10,000 rpm (8,385 g) for 3 minutes; or 5,696 rpm (3,000 g) for 15 minutes) for plasma generation. Plasma was frozen on dry ice prior to bioanalysis. PK parameters were generated from LC-MS/MS data using Dotmatics or Phoenix WinNonlin 6.3 software.

Data set [3] concerns the target T1, NLRP3. The experiment in a line: Human whole blood IL1β release assay. Type of data set: cell-based. More on the design: Plate out 80 μl of whole blood containing 1 μg/ml of LPS; from tissue; host or cells: human whole blood from healthy donors, LPS-primed, nigericin-stimulated. The note with it: 1 μg/ml LPS, nigericin 10 μM, IL-1β by AlphaLisa, read-out: HWB IC50. On the procedure: For systemic delivery, the ability to inhibit NLRP3 when the compounds are present within the bloodstream is of great importance. For this reason, the NLRP3 inhibitory activity of a number of compounds in human whole blood was investigated in accordance with the following protocol.
Human whole blood in Li-heparin tubes was obtained from healthy donors from a volunteer donor panel. • 1. Plate out 80 μl of whole blood containing 1 μg/ml of LPS in 96-well, clear bottom cell culture plate (Corning #3585) • 2. Add 10 μl compound (8 points half-log dilution with 10 μM top dose) or vehicle (DMSO 0.1% FAC) to the appropriate wells • 3. Incubate for 3 hrs at 37° C., 5% CO2 • 4. Add 10 μl Nigericin (Sigma #N7143) (10 μM FAC) to all wells • 5. Incubate for 1 hr at 37° C., 5% CO2 • 6. At the end of the incubation period, spin plates at 300×g for 5 mins to pellet cells and remove 20 μl of supernatant and add to 96-well v-bottom plates for IL-1β analysis (note: these plates containing the supernatants can be stored at −80° C. to be analysed at a later date) • 7. IL-1β was measured according to the manufacturer protocol (Perkin Elmer-AlphaLisa IL-1 Kit AL220F-5000) • 8. IC50 data is fitted to anon-linear regression equation (log inhibitor vs response-variable slope 4-parameters)
On the technique in general: In Alpha technology, singlet oxygen from a donor bead excites a nearby acceptor bead.

[4] abbreviates: intravenous administration, dose per compound in Dose column (0.83-5.05 mg/kg).
The mark [5] stands for this setting: oral administration, dose per compound in Dose column (3 or 5 mg/kg).

In the case of `CC(C)n1nc(S(=O)(=O)NC(=O)Nc2c3c(cc4c2CCC4)CCC3)cc1C(=O)N1CCC1` [Example 31, 5-(Azetidine-1-carbonyl)-N-((1,2,3,5,6,7-hexahydro-s-indacen-4-yl)carbamoyl)-1-isopropyl-1H-pyrazole-3-sulfonamide], at NLRP3 [1], the IC50 (in general, the concentration needed to halve the response being measured) was 40 to 160 nM. Moreover, in data set [2] (setting [4]), the AUC (usually the area under the concentration-time curve, a measure of exposure) worked out at 303 ng·h/mL; the clearance (in general, the rate of elimination divided by the concentration) was 55.3 mL/min/kg; the half-life (as a rule, how long it takes for the measured level to halve) was 1.6 h; the Vd is 1.66 L/kg. Further, the IC50 at NLRP3 [3] fell in the range of 800 to 1600 nM.
On NLRP3 [1], `CC(C)c1cc(F)cc(C(C)C)c1NC(=O)NS(=O)(=O)c1cc(C(=O)N2CCC2)n(C)n1` [Example 45, 5-(Azetidine-1-carbonyl)-N-((4-fluoro-2,6-diisopropylphenyl)carbamoyl)-1-methyl-1H-pyrazole-3-sulfonamide] gave an IC50 of 40 to 160 nM. Further, in data set [2] (setting [4]), the AUC worked out at 415 ng·h/mL, the clearance was determined as 40.3 mL/min/kg, the half-life is 6.4 h and the Vd is 7.96 L/kg. At NLRP3 [3], the IC50 is under 400 nM.
As for `CC(C)c1cc(F)cc(C(C)C)c1NC(=O)NS(=O)(=O)c1cc(C(=O)N(C)C)n(C)n1` [Example 60, 3-(N-((4-Fluoro-2,6-diisopropylphenyl)carbamoyl)sulfamoyl)-N,N,1-trimethyl-1H-pyrazole-5-carboxamide], on NLRP3 [1], the IC50 fell in the range of 160 to 640 nM. Besides, in data set [2] (setting [4]), the AUC came to 283 ng·h/mL, the clearance was found to be 59.2 mL/min/kg, the half-life is 3.3 h and the Vd is 4.08 L/kg. For the same compound, in data set [2] (setting [5]), the AUC was 770 ng·h/mL; the CL/F (in general, clearance divided by bioavailability, as obtained after extravascular dosing) was 110 mL/min/kg; the concentration peaked (Cmax) at 495 ng/mL; the Tmax (commonly the time from dosing to the highest level) is 0.17 h. Moreover, in data set [2] (setting [5]), the bioavailability (in general, dose-corrected exposure relative to a reference, in per cent) came out at 54.3% and the half-life is 9.7 h. Also, on NLRP3 [3], the IC50 is under 400 nM.
`CCN(C)C(=O)c1cc(S(=O)(=O)NC(=O)Nc2c3c(cc4c2CCC4)CCC3)nn1C` [Example 62, N-Ethyl-3-(N-((1,2,3,5,6,7-hexahydro-s-indacen-4-yl)carbamoyl)sulfamoyl)-N,1-dimethyl-1H-pyrazole-5-carboxamide] displayed an IC50 against NLRP3 [1] of 40 to 160 nM. Further, in data set [2] (setting [4]), the AUC is 1720 ng·h/mL, the clearance came out at 25 mL/min/kg, the half-life is 0.1 h and the Vd was found to be 0.24 L/kg. Moreover, at NLRP3 [3], the IC50 was 400 to 800 nM.
Compound `CC(C)c1cccc(C(C)C)c1NC(=O)NS(=O)(=O)c1cc(C(=O)N(C)C)n(C)n1` [Example 67, 3-(N-((2,6-Diisopropylphenyl)carbamoyl)sulfamoyl)-N,N,1-trimethyl-1H-pyrazole-5-carboxamide] displayed an IC50 on NLRP3 [1] of 160 to 640 nM. For the same compound, in data set [2] (setting [4]), the AUC was found to be 334 ng·h/mL, the clearance was found to be 48.7 mL/min/kg, the half-life is 0.5 h and the Vd was 0.99 L/kg. The IC50 on NLRP3 [3] was under 400 nM.
The compound `CC(C)c1cc(Cl)cc(C(C)C)c1NC(=O)NS(=O)(=O)c1cc(C(=O)N(C)C)n(C)n1` [Example 68, 3-(N-((4-Chloro-2,6-diisopropylphenyl)carbamoyl)sulfamoyl)-N,N,1-trimethyl-1H-pyrazole-5-carboxamide] yielded a concentration for half-maximal inhibition (IC50) against NLRP3 [1] of 40 to 160 nM. Moreover, in data set [2] (setting [4]), the AUC was found to be 353 ng·h/mL, the clearance amounted to 161 mL/min/kg, the half-life was 1.3 h and the Vd was 10.6 L/kg. Also, the IC50 at NLRP3 [3] lay within 1600 to 3200 nM.
`CN(C)C(=O)c1cc(S(=O)(=O)NC(=O)Nc2c3c(cc4c2CCC4)CCC3)nn1C` [Example 69, 3-(N-((1,2,3,5,6,7-Hexahydro-s-indacen-4-yl)carbamoyl)sulfamoyl)-N,N,1-trimethyl-1H-pyrazole-5-carboxamide] came in with a 50% inhibitory concentration (IC50) on NLRP3 [1] of 40 to 160 nM. Besides, in data set [2] (setting [4]), the area under the curve (AUC) amounted to 3390 ng·h/mL, the clearance worked out at 24.8 mL/min/kg, the half-life is 25.3 h and the Vd amounted to 17.8 L/kg. Also, in data set [2] (setting [5]), the AUC was 1050 ng·h/mL, the CL/F was 49.5 mL/min/kg, the concentration peaked (Cmax) at 600 ng/mL and the Tmax was found to be 0.25 h. In data set [2] (setting [5]), this compound showed a bioavailability of 62% and a half-life of 3.4 h. In addition, on NLRP3 [3], the IC50 is under 400 nM.
